Values of other authors, collected in paper PMC12444550, “Design, Synthesis, and Trypanosomicidal Evaluation of Eugenol-Based Azole Hybrids: Discovery of an In Vitro Active and Selective Compound” (ACS Omega, 2025).

Tested on: T. cruzi epimastigotes
Set-up: method as in Brancaglion and coauthors
Conditions: ref Brancaglion and coauthors; read-out: in vitro IC50 against epimastigotes; cited from earlier work

CCCc1cc(OC)c2oc(=O)c(C(=O)c3ccc([N+](=O)[O-])cc3)cc2c1 [nitrobenzoyl derivative, 8-methoxy-3-(4-nitrobenzoyl)-6-propyl-2H-cromen-2-one]
IC50: 28 µM
